In patent US5583020A, “Permeability enhancers for negatively charged polynucleotides” (Ribozyme Pharmaceuticals, Inc., priority 1993, dated 1996):
Read-outs that look alike come from different tables or passages of the source.

What was measured:
[1] = Diffusion of 32P-ribozyme across a liposome membrane (liposome-associated radioactivity); type: in vitro ADME
Excerpt: The ribozyme was a 36 mer containing five 2'-O-methyl riboses at the 5' end and the 3' end. The ratio of permeability enhancer molecules per mole of phosphate was about 20:1.

[2] = system: HeLa cells; assay: Diffusion of 32P-ribozyme into HeLa cells (cell associated radioactivity); type: cell-based; settings: 20 molecules enhancer per mole of ribozyme phosphate; pH about 4, diluted in DMEM without serum; 1 hour at 37° C., 5% CO2
Protocol: This example illustrates the ability of an enhancer to facilitate the diffusion of a ribozyme into HeLa cells. […] The sample was diluted up to 1 ml with DMEM media containing no serum and added to HeLa cells. A control was run containing ^32 P-ribozyme without enhancer. Cells were incubated for 1 hour at 37° C. in 5% CO2. The cells were washed 3 times with serum free media and solubilized with 0.5 ml of 1% triton.

[3] = not told
[4] = ratio of permeability enhancer per mole of phosphate about 20:1, pH about 4, 25° C., 15 minutes, 32P ribozyme (36 mer)

| Compound | % Liposome Associated [1] [%] | % Liposome Associated [1, 4] [%] | further results |
| --- | --- | --- | --- |
| NCCCCCC(=O)O [Aminocaproic Acid] |  | 0.70 |  |
| NCCCCCCCC(=O)O [Aminocaprylic Acid] |  | 9.54 | amount of cell associated radioactivity, enhancer:ribozyme versus ribozyme alone [2]: 3 fold; membrane association on increasing the ratio of enhancer to ribozyme (in words) [3]: concomitant increase in membrane association; degree of membrane association (in words) ([1]; ribozyme, enhancer to phosphate about 20:1): highest degree of membrane association |
| O=C(O)/C=C/c1c[nH]cn1 [Urocanic Acid] | 0.95 |  |  |
| NCC(=O)O [glycine] |  | 0.55 |  |

The next lines start with results.

| % Liposome Associated [1] [%] | Compound | % Liposome Associated [1, 4] [%] | further results |
| --- | --- | --- | --- |
| 0.53 | NCCCC(=O)O [Aminobutyric Acid] |  |  |
| 2.54 | Nc1cccc(C(=O)O)c1 [m-Aminobenzoic Acid] |  |  |
